{
  "source": "patent US20200222474A1",
  "about": "“COMPOSITIONS AND METHODS FOR INCREASING PHYTOCHEMICAL BIOAVAILABLITY AND BIOACTIVITY” (North Carolina State University, priority 2017, published 2020)",
  "test_system": "L. acidophilus NCFM",
  "test": "RNA-seq transcriptional analysis of L. acidophilus NCFM growing on plant glycosides",
  "format": "cell-based, Lactobacillus acidophilus",
  "key": {"[1]": {"details": "LBA1481 D-ribose-binding protein precursor, COG G"}, "[2]": {"details": "LBA1482 Ribose ABC transporter, COG G"}, "[3]": {"details": "LBA1483 Ribose ABC transporter ATP binding protein, COG G"}, "[4]": {"details": "LBA1484 D-ribose pyranase, COG G"}, "[5]": {"details": "LBA1494 Lincomycin-resistance protein, COG GEPR"}, "[6]": {"details": "LBA1607 Phosphatidylserine decarboxylase precursor, COG I"}, "[7]": {"details": "LBA1632 NAD-dependent aldehyde dehydrogenase, COG C"}, "[8]": {"details": "LBA1653 Nicotinamide mononucleotide, COG H"}, "[9]": {"details": "LBA1684 Putative PTS system IIA component, COG G"}, "[10]": {"details": "LBA1689 Maltose-6′-phosphate Oucosidase, COG G"}, "[11]": {"details": "LBA1700 Transcriptional regulator-type, COG K"}, "[12]": {"details": "LBA1701 Melibiose operon regulatory protein, COG K"}, "[13]": {"details": "LBA1705 PTS system IIBC component, COG G"}, "[14]": {"details": "LBA1708 Transcriptional antiterminator, COG K"}, "[15]": {"details": "LBA1710 Thermostable pullulanase, COG G"}, "[16]": {"details": "LBA1812 Alpha-glucosidase II, COG G"}, "[17]": {"details": "LBA1870 Maltose phosphorylase, COG G"}, "[18]": {"details": "LBA1872 Oligo-1,6-glucosidase, COG G"}, "[19]": {"details": "LBA1955 Transcription regulator family protein, COG K"}, "[20]": {"details": "gene LBA0046 (Hypothetical protein)"}, "[21]": {"details": "gene LBA0149 (Putative nucleotide-binding protein)"}, "[22]": {"details": "gene LBA0263 (Hypothetical protein)"}},
  "data": [
    {"compound": "O=c1ccc2cc(O[C@@H]3O[C@H](CO)[C@@H](O)[C@H](O)[C@H]3O)c(O)cc2o1", "note": "[Esculin]", "values": [
      {"measurement": "Transcripts per million (rpm)", "setting": "LBA1468 Beta-galactosidase small subunit, COG G", "result": 38.7, "unit": "rpm"},
      {"measurement": "Log2 differential normalized TPM ratio compared to glucose", "setting": "[1]", "result": 0.9},
      {"measurement": "Log2 differential normalized TPM ratio compared to lactose", "setting": "[1]", "result": 0.1},
      {"measurement": "Transcripts per million (rpm)", "setting": "[1]", "result": 9.2, "unit": "rpm"},
      {"measurement": "Log2 differential normalized TPM ratio compared to glucose", "setting": "[2]", "result": 1},
      {"measurement": "Log2 differential normalized TPM ratio compared to lactose", "setting": "[2]", "result": 0},
      {"measurement": "Transcripts per million (rpm)", "setting": "[2]", "result": 8.1, "unit": "rpm"},
      {"measurement": "Log2 differential normalized TPM ratio compared to glucose", "setting": "[3]", "result": 0.4},
      {"measurement": "Log2 differential normalized TPM ratio compared to lactose", "setting": "[3]", "result": "−0.7"},
      {"measurement": "Transcripts per million (rpm)", "setting": "[3]", "result": 4.2, "unit": "rpm"},
      {"measurement": "Log2 differential normalized TPM ratio compared to glucose", "setting": "[4]", "result": 0.4},
      {"measurement": "Log2 differential normalized TPM ratio compared to lactose", "setting": "[4]", "result": "−0.3"},
      {"measurement": "Transcripts per million (rpm)", "setting": "[4]", "result": 5.3, "unit": "rpm"},
      {"measurement": "Log2 differential normalized TPM ratio compared to glucose", "setting": "LBA1485 Ribokinase, COG G", "result": "−0.3"},
      {"measurement": "Log2 differential normalized TPM ratio compared to lactose", "setting": "LBA1485 Ribokinase, COG G", "result": "−1"},
      {"measurement": "Transcripts per million (rpm)", "setting": "LBA1485 Ribokinase, COG G", "result": 2.7, "unit": "rpm"},
      {"measurement": "Log2 differential normalized TPM ratio compared to glucose", "setting": "[5]", "result": 3.6},
      {"measurement": "Log2 differential normalized TPM ratio compared to lactose", "setting": "[5]", "result": 3.6},
      {"measurement": "Transcripts per million (rpm)", "setting": "[5]", "result": 69.4, "unit": "rpm"},
      {"measurement": "Log2 differential normalized TPM ratio compared to glucose", "setting": "[6]", "result": 1.5},
      {"measurement": "Log2 differential normalized TPM ratio compared to lactose", "setting": "[6]", "result": 0.5},
      {"measurement": "Transcripts per million (rpm)", "setting": "[6]", "result": 59.5, "unit": "rpm"},
      {"measurement": "Log2 differential normalized TPM ratio compared to glucose", "setting": "[7]", "result": 3.3},
      {"measurement": "Log2 differential normalized TPM ratio compared to lactose", "setting": "[7]", "result": 1.5},
      {"measurement": "Transcripts per million (rpm)", "setting": "[7]", "result": 730.5, "unit": "rpm"},
      {"measurement": "Log2 differential normalized TPM ratio compared to glucose", "setting": "[8]", "result": 2},
      {"measurement": "Log2 differential normalized TPM ratio compared to lactose", "setting": "[8]", "result": 1.4},
      {"measurement": "Transcripts per million (rpm)", "setting": "[8]", "result": 996.7, "unit": "rpm"},
      {"measurement": "Log2 differential normalized TPM ratio compared to glucose", "setting": "[9]", "result": 2.9},
      {"measurement": "Log2 differential normalized TPM ratio compared to lactose", "setting": "[9]", "result": 1},
      {"measurement": "Transcripts per million (rpm)", "setting": "[9]", "result": 98.9, "unit": "rpm"},
      {"measurement": "Log2 differential normalized TPM ratio compared to glucose", "setting": "[10]", "result": 1.8},
      {"measurement": "Log2 differential normalized TPM ratio compared to lactose", "setting": "[10]", "result": 0.3},
      {"measurement": "Transcripts per million (rpm)", "setting": "[10]", "result": 12.7, "unit": "rpm"},
      {"measurement": "Log2 differential normalized TPM ratio compared to glucose", "setting": "[11]", "result": 1.5},
      {"measurement": "Log2 differential normalized TPM ratio compared to lactose", "setting": "[11]", "result": 1},
      {"measurement": "Transcripts per million (rpm)", "setting": "[11]", "result": 61.9, "unit": "rpm"},
      {"measurement": "Log2 differential normalized TPM ratio compared to glucose", "setting": "[12]", "result": 4.9},
      {"measurement": "Log2 differential normalized TPM ratio compared to lactose", "setting": "[12]", "result": 4.1},
      {"measurement": "Transcripts per million (rpm)", "setting": "[12]", "result": 1259.8, "unit": "rpm"},
      {"measurement": "Log2 differential normalized TPM ratio compared to glucose", "setting": "[13]", "result": 2.2},
      {"measurement": "Log2 differential normalized TPM ratio compared to lactose", "setting": "[13]", "result": 1.3},
      {"measurement": "Transcripts per million (rpm)", "setting": "[13]", "result": 15.9, "unit": "rpm"},
      {"measurement": "Log2 differential normalized TPM ratio compared to glucose", "setting": "[14]", "result": 1.4},
      {"measurement": "Log2 differential normalized TPM ratio compared to lactose", "setting": "[14]", "result": 0},
      {"measurement": "Transcripts per million (rpm)", "setting": "[14]", "result": 1.6, "unit": "rpm"},
      {"measurement": "Log2 differential normalized TPM ratio compared to glucose", "setting": "[15]", "result": 0.3},
      {"measurement": "Log2 differential normalized TPM ratio compared to lactose", "setting": "[15]", "result": "−0.1"},
      {"measurement": "Transcripts per million (rpm)", "setting": "[15]", "result": 9.6, "unit": "rpm"},
      {"measurement": "Log2 differential normalized TPM ratio compared to glucose", "setting": "LBA1723 Transposase, COG L", "result": 0},
      {"measurement": "Log2 differential normalized TPM ratio compared to lactose", "setting": "LBA1723 Transposase, COG L", "result": "−0.2"},
      {"measurement": "Transcripts per million (rpm)", "setting": "LBA1723 Transposase, COG L", "result": 55.8, "unit": "rpm"},
      {"measurement": "Log2 differential normalized TPM ratio compared to glucose", "setting": "[16]", "result": 2.8},
      {"measurement": "Log2 differential normalized TPM ratio compared to lactose", "setting": "[16]", "result": 0.8},
      {"measurement": "Transcripts per million (rpm)", "setting": "[16]", "result": 120.6, "unit": "rpm"},
      {"measurement": "Log2 differential normalized TPM ratio compared to glucose", "setting": "[17]", "result": 0},
      {"measurement": "Log2 differential normalized TPM ratio compared to lactose", "setting": "[17]", "result": 1.2},
      {"measurement": "Transcripts per million (rpm)", "setting": "[17]", "result": 109.2, "unit": "rpm"},
      {"measurement": "Log2 differential normalized TPM ratio compared to glucose", "setting": "LBA1871 Neopullulanase, COG G", "result": 2.1},
      {"measurement": "Log2 differential normalized TPM ratio compared to lactose", "setting": "LBA1871 Neopullulanase, COG G", "result": 1.4},
      {"measurement": "Transcripts per million (rpm)", "setting": "LBA1871 Neopullulanase, COG G", "result": 12.2, "unit": "rpm"},
      {"measurement": "Log2 differential normalized TPM ratio compared to glucose", "setting": "[18]", "result": 1},
      {"measurement": "Log2 differential normalized TPM ratio compared to lactose", "setting": "[18]", "result": 0.6},
      {"measurement": "Transcripts per million (rpm)", "setting": "[18]", "result": 6.3, "unit": "rpm"},
      {"measurement": "Log2 differential normalized TPM ratio compared to glucose", "setting": "LBA1873 Acetate kinase, COG C", "result": 0.8},
      {"measurement": "Log2 differential normalized TPM ratio compared to lactose", "setting": "LBA1873 Acetate kinase, COG C", "result": "−0.5"},
      {"measurement": "Transcripts per million (rpm)", "setting": "LBA1873 Acetate kinase, COG C", "result": 6.4, "unit": "rpm"},
      {"measurement": "Log2 differential normalized TPM ratio compared to glucose", "setting": "LBA1878 Glycerol kinase, COG C", "result": 2.1},
      {"measurement": "Log2 differential normalized TPM ratio compared to lactose", "setting": "LBA1878 Glycerol kinase, COG C", "result": 2},
      {"measurement": "Transcripts per million (rpm)", "setting": "LBA1878 Glycerol kinase, COG C", "result": 38, "unit": "rpm"},
      {"measurement": "Log2 differential normalized TPM ratio compared to glucose", "setting": "[19]", "result": "−1.3"},
      {"measurement": "Log2 differential normalized TPM ratio compared to lactose", "setting": "[19]", "result": "−0.9"},
      {"measurement": "Transcripts per million (rpm)", "setting": "[19]", "result": 218.2, "unit": "rpm"},
      {"measurement": "number of up-regulated genes", "setting": "RNA-seq, compared to glucose", "result": 87, "unit": "genes"},
      {"measurement": "number of uniquely induced genes", "setting": "RNA-seq, up-regulated genes not shared with the other PGs", "result": 35},
      {"measurement": "Log2 differential normalized TPM ratio compared to glucose", "setting": "[20]", "result": 2.2},
      {"measurement": "Log2 differential normalized TPM ratio compared to lactose", "setting": "[20]", "result": 1.5},
      {"measurement": "Transcripts per million (rpm)", "setting": "[20]", "result": 1439.6, "unit": "rpm"},
      {"measurement": "Log2 differential normalized TPM ratio compared to glucose", "setting": "[21]", "result": 1.4},
      {"measurement": "Log2 differential normalized TPM ratio compared to lactose", "setting": "[21]", "result": 0.6},
      {"measurement": "Transcripts per million (rpm)", "setting": "[21]", "result": 1325.7, "unit": "rpm"},
      {"measurement": "Log2 differential normalized TPM ratio compared to glucose", "setting": "[22]", "result": 1.8},
      {"measurement": "Log2 differential normalized TPM ratio compared to lactose", "setting": "[22]", "result": 1.1},
      {"measurement": "Transcripts per million (rpm)", "setting": "[22]", "result": 59.9, "unit": "rpm"}
    ]}
  ]
}
